This note sets out measurements from patent US20200345733A1, “Microbicidal Pyrimidine or Triazine Containing Compounds” (Janssen Sciences Ireland UC, priority 2002, published 2020).

In general, EC50 refers to the concentration giving half of the maximal effect. In general, CC50 refers to the concentration at which the toxic effect on the cells reaches its halfway point. Low values mean harm at low concentration, high ones better tolerance by the cells. One may read the IC50 as the concentration that inhibits the measured activity by half. A lower IC50 goes with greater potency in that assay. In general, Ki refers to a dissociation constant, usually derived from enzyme kinetics or from competition with a known ligand. The low end stands for higher affinity, the high end for lower affinity. A word on the Km: it is the concentration of substrate that gives half-maximal velocity.

Data set [1] deals with HTLV-IIIb infected CEM T cells. The data set is described as follows: Antiviral activity in HTLV-IIIB infected CEM T cells (syncytium formation). Format: cell-based, HIV. The settings on record: Human immunodeficiency virus 1, T-cell, continuous treatment, 50% inhibition of syncytium formation in CEM T cells. As for the experimental part:
For experiments with CEM T cells, we used the lymphotropic SI/X4 HIV strain HTLV-IIIB, originally obtained from R. C. Gallo and M. Popovic (NIH, Bethesda, Md.). For experiments with monocyte-derived dendritic cells (MO-DC), the monotropic NSI/R5 HIV strain Ba-L, kindly provided by the NIH AIDS Research and Reference Reagent Program (Rockville, Md) was used. Ba-L stocks were grown and tittered on PHA/IL-2-stimulated peripheral blood mononuclear cells (PBMC) in complete medium, containing RPMI-1640 (Bio-Whittaker, Verviers, Belgium) and 10% bovine calf serum (Hyclone, Utah, US) (Peden K. Virological and Molecular Genetic Techniques for Studies of Established HIV Isolates. 1995, 21-45). The supernatant of these cultures were directly used as cell-free virus to infect MO-DC. To prepare cell-associated HIV Ba-L, non-stimulated PBMC (2×10^6 cells/ml) were incubated overnight with 10^−2 MOI (=multiplicity of infection) of HIV Ba-L in complete medium. Afterwards, cells were extensively washed, frozen in liquid nitrogen and thawed on the day of infection.
As a reference system, CEM T cells (obtained from the American Type culture Collection in Rockville, Md.) were used under previously standardized conditions (Balzarini J, et al. AIDS Res Hum Retroviruses 10 Apr. 2000, 16: 517-528). […]

Data set [2] is described as follows: Cytotoxicity in CEM T cells. The conditions noted are these: human; viability of CEM T cells decreased by 50%. Format: cell-based. As for the experimental part: As a reference system, CEM T cells (obtained from the American Type culture Collection in Rockville, Md.) were used under previously standardized conditions (Balzarini J, et al. AIDS Res Hum Retroviruses 10 Apr. 2000, 16: 517-528). Briefly, cells were suspended at 250,000 cells/ml in RPMI-1640, supplemented with 10% fetal calf serum, 2 mM L-glutamine and 0.075% NaHCO3 and infected with HTLV-IIIB at ˜20 TCID50. 100 μl of a 5-fold dilution series of the drugs were immediately added to 100 μl of the infected cells in 200-μl well plates. After 4 to 5 days of incubation at 37° C., the cultures were examined for syncytium formation. The EC50 is the concentration required to inhibit syncytium formation by 50%. Cytotoxicity was evaluated and given as CC50 values, which is the concentration at which the viability of the CEM cells is decreased by 50%.

Data set [3] deals with HIV-1 reverse transcriptase (Human immunodeficiency virus type 1 group M subtype B, UniProt P04585). Put plainly: Cell-free HIV-1 reverse transcriptase inhibition. Format: biochemical. The settings on record: inhibits HIV-1 reverse transcriptase activity by 50%, cell-free assay. As for the experimental part:
Next to antiviral activity in CEM T cells, inhibition of HIV-1 reverse transriptase activity was measured in a cell-free assay, in which the 50% inhibitory concentration (IC50) of said compound is indicated (FIG. 1). The CEM system, using a lab T cell-line and the SI/X4labstrain HTLV-IIIb, was not directly relevant to sexual transmission, where primary T cells, dendritic cells and NSI/R5 viruses are involved. Therefore, we focussed on prevention of NSI/R5 HIV infection in MO-DC/CD4(+) T cell co-cultures.

The subject of data set [4] is T-lymphocyte proliferation. Put plainly: Immune suppressive activity in mixed leukocyte cultures (MO-DC stimulators, allogenic CD4(+) T cells). Format: cell-based. As for the experimental part:
The immune suppressive activity of compound B was measured in mixed leukocyte cultures (MLC), with MO-DC as stimulators and allogenic CD4(+) T cells as responders. Cultures of 3×10^3 MO-DC and 100×10^3 T cells were set-up in 6-fold in a 96-well plate, in the presence or absence of a dilution series of compound B. In a first part of experiments, compound B was removed after 24 hours by washing and cells were cultured for an additional 4 days. In a second part of experiments, compound B remained present during the 5-day culture period. In both set-ups, 1 μCi of [methyl-^3H] thymidine (TRA. 120 from Amersham Pharmacia, Buckinghamshire, U.K.) was added to each well at the fifth day of culture. Plates were harvested 7 hours later and [methyl-^3H] thymidine incorporation was measured in a scintillation counter (Top Count™, Canberra-Packard, Zellik, Belgium) and expressed as counts per minute (CPM). The
(§1) Immune Suppressive Concentration (ISC50) is defined as the drug concentration inhibiting 50% of the lymphocyte proliferation. Cellular toxicity was evaluated microscopically by […] staining of co-cultures of MO-DC and allogeneic CD4(+) T cells , cultured for 5 days in the presence of a dilution series of drug. Part of the harvested cells was also used for flowcytometric analysis of lymphocyte blast formation and apopoptosis, based on forward and side scatter.

Another data set concerns T cells. Format: cell-based. The settings on record: human, 5 days. As to the method: as §1
Additional experiments were done to evaluate if inhibition of DNA synthesis corresponded to increased mortality of T cells or only to decreased blast formation.

The next data set relates to HIV. The data set is described as follows: Cervical explant model. Format: cell-based. As for the experimental part: Compound B, at a concentration of 10 nM, was able to block infection of the tissue and at a concentration of 100 nM the compound could prevent transfer of infectious virus from migratory dendritic cells to co-cultured T-cells.
In data set [5] the test system is primary HIV strains (X4, CCR5 and X41R5). The data set is described as follows: Efficacy against primary HIV strains in relevant cell lines. Format: cell-based.
The subject of data set [6] is cervical epithelial cells (MEI180). Put plainly: MTT viability of cervical epithelial cells. The settings on record: exposure 1 hr, 24 hrs or 5 days. Format: cell-based.
Data set [7] deals with HIV-1 reverse transcriptase (HIV-1 RT) (Human immunodeficiency virus type 1 group M subtype B, UniProt P04585). The data set is described as follows: Steady state kinetics of RNA-dependent DNA polymerization by HIV-1 RT. Format: biochemical. As for the experimental part: In a first experiment, the reaction velocity was determined in the presence of different concentrations of compound B and different concentrations of dGTP while the concentration of the p(rC)p(dG) complex was constant.
In a second experimental the reaction velocity was determined in the presence of different concentrations of compound B and different concentrations of p(rC)p(dG) while the concentration of the substrate was constant.

Data set [8] deals with Neisseria gonorrhoea strains. Put plainly: In vitro antibacterial activity, Neisseria gonorrhoea. Format: cell-based. The settings on record: some strains. An excerpt: Compatibility with lactobacilli and normal vaginal flora is an important requirement for a vaginal microbicide. Activity on pathogens of sexual transmitted diseases is an additional advantage. In in vitro tests for antibacterial activity of compound B, the following susceptibilities were found: • 33 different Lactobacillus species isolated from recto-vaginal cultures of pregnant women were studied.

As for `Cc1cc(C)c(Nc2ccnc(Nc3ccc(C#N)cc3)n2)c(C)c1` [compound B, 4-[[4-[(2,4,6-trimethylphenyl)amino]-2-pyrimidinyl]amino]benzonitrile], the response in data set [1] was half-maximal at 1 nM (EC50). For the same compound, in [2], it took 1370 nM to reach half-maximal cytotoxicity (CC50). Half-maximal inhibition in data set [3] (IC50) required 24 nM. The “ISC50 (50% Immune Suppressive Concentration)” value is given as “about 1,500 nM” in data set [4] (drug present continuously during 5-day culture); 1,515 nM in data set [4] (drug present continuously during 5-day culture, listed as Comp. B); ~25,000 nM in [4] (drug present during first 24 hours only); 24,886 nM in [4] (drug present during first 24 hours only, listed as Comp. B). The “50% death rate of T cells” value in the data set with T cells was 54,222 nM. Further, the “Fifty percent inhibition of blast formation” value in the data set on T cells is given as 3,916 nM. Also, the “Concentration able to block infection of the tissue” value in the data set with HIV was 10 nM. In addition, the “Concentration preventing transfer of infectious virus from migratory dendritic cells to co-cultured T-cells” value in the data set on HIV is recorded as 100 nM. Moreover, the “Efficacy against primary HIV strains” value in [5] is reported as “good efficacy”. In addition, the “Toxicity (viability, MTT assay)” value in data set [6] (100 nM) is recorded as “some reduction of viability”; in data set [6] (50 μM), “no toxicity”. Also, the “Nature of binding to HIV-1 RT” value in [7] (against dGTP) and in data set [7] (against p(rC)p(dG)) was “non-competitive” throughout. Besides, the inhibitory constant (Ki) came to 33 nM in data set [7] (against dGTP, p(rC)p(dG) constant) and 28 nM in data set [7] (against p(rC)p(dG), substrate constant). For the same compound, the Michaelis-Menten constant (Km) in data set [7] (dGTP varied, p(rC)p(dG) constant (Km of the substrate)) worked out at 2.51 µM; in [7] (p(rC)p(dG) varied, substrate constant (Km of primer/template)) it was 10.3 µM. Further, the “Inhibition of Neisseria gonorrhoea strains” value in data set [8] was “inhibited at clinical relevant concentrations”.
